# Assays:
# [1] = test system: female Sprague-Dawley rats; assay: Non-stop transvesical cystometrogram in urethane-anesthetized rats (continuous cystometry); format: in vivo
# Experimental: Ten female Sprague-Dawley rats having a mean weight of 263±19 g were anesthetized with urethane (1.2 g/k, sc.). A midline incision was performed to expose the bladder and a 23G catheter was inserted into the bladder dome for the measurement of intravesical pressure. A non-stop transvesical cystometrogram, as described in J. Pharmacological. Methods, 15, pp. 157-167 (1986), was used, at a filling rate of 0.216 ml/min. of saline, to access the filling and voiding characteristics of the bladder. Through the continuous cystometry method thus afforded, consecutive micturition could be recorded. Dextromethorphan was given at intravenous does of: 1.0, 3.0, 10, 30, 50 mg/kg after the initial baseline micturition sequence was reliably measured for approximately 12 min. From these recordings the absolute values in maximum pressure obtained and the frequency of micturition was measured. A dose response curve illustrating the effect of dextromethorphan on the absolute micturition pressures in the range of 1-50 mg/kg is given in FIG. 1. Data given are mean and SE.
# [2] = literature report; cited from earlier work
Structure (SMILES),"volume evoked micturition reflex ([1]; increasing intravenous doses 1.0-50 mg/kg, cystometrogram, anesthetized rats)",reduction in detrusor pressure ([1]; intravenous 10 mg/kg) [%],"frequency of micturition ([1]; intravenous 1-50 mg/kg, dose response, FIG. 2)",reduction in detrusor pressure ([1]; intravenous dose level of 3 mg/kg),effect on detrusor pressure at high doses (initial increase before suppression) ([1]; intravenous doses higher than 10 mg/kg),volume evoked micturition contractions ([1]; intravenous doses in the range of 10-30 mg/kg),frequency in micturition [2]
"COc1ccc2c(c1)[C@@]13CCCC[C@H]1[C@@H](C2)N(C)CC3 [dextromethorphan, (+)-3-methoxy-N-methylmorphinan]",suppressed in a dose sensitive manner,50,decrements gradually with respect to dose,significant sustained reduction,"bimodal, producing an initial increase in detrusor pressure before suppression",almost totally suppressed,
C[C@]12N[C@H](Cc3ccccc31)c1ccccc12 [MK-801],,,,,,,increase in frequency in micturition

# Source: patent US7087619B2, “Method for the treatment of urinary incontinence” (Endo Pharmaceuticals, Inc., priority 1995, dated 2006)
